Tests used:
[1] = tested on: hepatocytes isolated from a male Sprague-Dawley rat; experiment: Synthesis of non-saponified and saponified lipids (14C-acetate incorporation) in hepatocytes; assay type: cell-based; settings: 100 μM, 14C-acetate labeling 2 hr (FIG. 18)
Procedure: A male Sprague-Dawley rat was anesthetized by administration of sodium pentobarbitol by intraparitoneal injection at 50 mg/kg. In situ perfusion of the liver was performed as follows. […] To digest the liver, DSC solution (6.7 mM KCl, 143 mM NaCl, 9.2 mM Na HEPES, 5 mM CaCl2-2H2O, 1.7 mM Fructose, 0.029 mM Phenol red, 0.2% BSA, 100 U/ml collagenase Type I, 93 U/ml Hyaluronidase, 160 BAEE/ml trypsin inhibitor, pH 7.5) was perfused through the liver at a flow rate of 30 ml/min for 6 minutes at a temperature of 37° C. After digestion, cells were dispersed in a solution of DMEM-(DMEM containing 2 mM GlutMax-1, 0.2% BSA, 5% FBS, 12 nM insulin, 1.2 μM hydrocortisone) to stop the digestion process. The crude cell suspension was filtered through three layers of stainless steel mesh with pore sizes of 250, 106, and 75 μm respectively. Filtered cells were centrifuged at 50×g for two minutes and the supernatant discarded. The resulting cell pellet was resuspended in DMEM and centrifuged again. This final cell pellet was resuspended in DMEM+HS solution (DMEM containing 2 mM GlutMax-1, 20 nM delta-aminolevulinic acid, 17.4 mM MEM non-essential amino acids, 20% FBS, 12 nM insulin, 1.2 μM hydrocortisone) and plated to form monolayer cultures at a density of 100×10^3 cells/cm^2 on collagen coated culture dishes. […]

[2] = tested on: chow fed male Sprague-Dawley rats; experiment: Serum lipids, lipoproteins, apolipoproteins and weight gain in chow fed male Sprague-Dawley rats after seven daily oral doses; assay type: in vivo, rat; settings: 100 mg/kg, seven days, vs vehicle
Procedure: Illustrative compounds of the invention were administered daily at a dose of 100 mg/kg to chow fed male Sprague-Dawley rats for seven days in the morning by oral gavage in 1.5% carboxymethylcellulose/0.2% Tween-20 (dosing vehicle). Animals were weighed daily. Animals were allowed free access to rodent chow and water throughout the study. After the seventh dose, animals were sacrificed in the evening and blood serum was assayed for lipoprotein cholesterol profiles, serum triglycerides, total cholesterol VLDL, LDL, and HDL cholesterol, and the ratio of HDL cholesterol to that of VLDL plus LDL cholesterol, apolipoproteins A-I, C-II, C-III, and E by immunoelectrophoresis, and percent weight gain.
The five compounds were tested in two separate experiments. In each experiment, the experimental data were normalized against a control group of rats which received the dosing vehicle alone.

[3] = tested on: LDL receptor deficient mice; experiment: Lipoprotein cholesterol profile in LDL receptor-deficient mice; assay type: in vivo; settings: 300 mg/kg/day, one week; 4 chow-fed female mice (FIG. 17)
Source text: The effect of Compound A on LDL levels in a murine model of homozygous familial hypercholesterolemia (Ishibashi et al., 1993, J. Clin. Invest. 92:883-893; Ishibashi et al., 1994, J. Clin. Invest. 93:1885-1893) was studied. LDL receptor-deficient mice have elevated LDL cholesterol relative to wild type mice when fed a chow diet. When fed cholesterol-enriched diets, these mice develop atherosclerosis.

[4] = tested on: chow fed obese female Zucker rats; experiment: Experiments B, C, D, E: serum lipids, glucose, insulin, body and liver weight in obese female Zucker rats, 14 days; assay type: in vivo, rat
Procedure: In a number of different experiments, illustrative compounds of the invention and troglitazone were administered daily at various doses to 10-week old chow fed obese female Zucker rats for 14 days in the morning by oral gavage in 1.5% carboxymethylcellulose/0.2% Tween-20 (dosing vehicle). Animals were weighed daily. Animals were allowed free access to rodent chow and water throughout the study. Blood glucose was determined after a 6-hour fast in the afternoon without anesthesia from a tail vein. Serum was also prepared from a blood sample subsequently obtained from the orbital venous plexus (with O2/CO2 anesthesia) prior to and after one week treatment and used lipid and insulin determinations. At two weeks, blood glucose was again determined after a 6-hour fast without anesthesia from a tail vein. Soon thereafter, animals were sacrificed by CO2 inhalation in the evening and cardiac blood serum was collected and assessed for various lipids and insulin. Body weight was determined daily prior to dosing and at the time of euthanasia.

[5] = tested on: female obese Zucker rats; experiment: Experiment A: serum lipids, glucose, non-esterified fatty acids and weight gain in obese female Zucker rats, seven days; assay type: in vivo, rat; settings: Compound A 86 mg/kg, one week
Procedure: Dosing vehicle, Compound A (86 mg/kg of body weight) or troglitazone (120 mg/kg of body weight) was administered to eight week old female obese Zucker rats daily for seven days in the morning by oral gavage in 1.5% carboxymethylcellulose/0.2% Tween-20. Troglitazone was obtained commercially. Finely crushed tablets were suspended in vehicle for dosing. Orbital blood samples were obtained following a six-hour fast prior to the initial dose and also following the seventh dose.
Blood serum was assayed for total cholesterol and triglycerides (FIG. 5), lipoprotein cholesterol profiles (FIG. 6), VLDL plus LDL cholesterol combined (also referred to as apo B containing lipoprotein cholesterol or non-HDL cholesterol), HDL cholesterol, and the ratio of HDL cholesterol to that of VLDL plus LDL cholesterol (FIG. 7), serum glucose, and non-esterified fatty acids (FIG. 8), and percent weight gain (FIG. 9). […] In particular, Compound A caused a marked elevation in HDL cholesterol after one week of treatment. Using the serum total cholesterol values (FIG. 5A) and the lipoprotein cholesterol distribution (FIG. 6), the amount of cholesterol associated with non-HDL (i.e., VLDL plus LDL) and HDL were determined (FIG. 7). […] In contrast, troglitazone reduced non-HDL and HDL cholesterol by 67% and 4%, respectively.

CC(C)(CCCOCCCC(C)(C)OP(=O)(OCc1ccccc1)OCc1ccccc1)OP(=O)(OCc1ccccc1)OCc1ccccc1 [Compound E, phosphoric acid dibenzyl ester 4-(4-(bis-benzyloxy-phosphoryloxy)-4-methyl-pentyloxy)-1,1-dimethyl-butyl ester] was tested. Which “rate of saponified fatty acid synthesis (in words)” value [1] did it give?
The value was “reduced the rates of saponified fatty acid synthesis”.

How did the “rate of saponified fatty acid synthesis (in words)” value [1] turn out when CC(C)(O)CCCCOCCCCC(C)(C)O [Compound F, 6-(5-hydroxy-5-methyl-hexyloxy)-2-methyl-hexan-2-ol] was run?
Its value is “reduced the rates of saponified fatty acid synthesis”.

What does the source list for CC(C)(CO)CCCCOCCCCC(C)(C)CO [Compound A, 6-(6-hydroxy-5,5-dimethylhexyloxy)-2,2-dimethyl-hexan-1-ol]?
change in VLDL cholesterol [2]: no change; HDL (in words) [3]: HDL elevation in all treated mice; LDL cholesterol (in words) [3]: rapid and significant reduction in LDL cholesterol; Body Weight Gain (% of Pre-treatment) ([4]; Experiment C, 1 mg/kg/day, 14 days, control +16.7): +16.7 % of Pre-treatment; Triglycerides (% of Pre-treatment) ([4]; Experiment C, 1 mg/kg/day, 14 days, control −11.2): −8.8 % of Pre-treatment; Body Weight Gain (% of Pre-treatment) ([4]; Experiment C, 3 mg/kg/day, 14 days, control +16.7): +17.5 % of Pre-treatment; Triglycerides (% of Pre-treatment) ([4]; Experiment C, 3 mg/kg/day, 14 days, control −11.2): −24.6 % of Pre-treatment; HDL-Cholesterol (% of Pretreatment) ([4]; Experiment C, 3 mg/kg/day, 14 days, control −29.8): −3.7 % of Pretreatment; Body Weight Gain (% of Pre-treatment) ([4]; Experiment C, 10 mg/kg/day, 14 days, control +16.7): +10.7 % of Pre-treatment; Triglycerides (% of Pre-treatment) ([4]; Experiment C, 10 mg/kg/day, 14 days, control −11.2): −50.9 % of Pre-treatment; Body Weight Gain (% of Pre-treatment) ([4]; Experiment C, 30 mg/kg/day, 14 days, control +16.7): +11.3 % of Pre-treatment; Triglycerides (% of Pre-treatment) ([4]; Experiment C, 30 mg/kg/day, 14 days, control −11.2): −42.0 % of Pre-treatment; Triglycerides (% of Pre-treatment) ([4]; Experiment C, 100 mg/kg/day, 14 days, control −11.2): −57.0 % of Pre-treatment; glucose to insulin ratio (in words) ([4]; Experiment C, Compound A 100 mg/kg (FIG. 14)): reduced; blood glucose (in words) ([4]; Experiment C, Compound A 100 mg/kg, troglitazone 40 mg/kg, fasted rats (FIG. 12)): tendency to lower blood glucose; reduction of serum triglycerides (in words) ([4]; Experiment C, Compound A 1-100 mg/kg, troglitazone 12, 40, 120 mg/kg (FIG. 10)): reduced serum triglyceride levels at all doses; glucose to insulin ratio (in words) ([4]; Experiment C, Compound A 1 and 3 mg/kg, two weeks (FIG. 14)): declined by approximately ⅓ to ½; weekly percent weight gain (in words) ([4]; Experiment C, Compound A 10, 30 and 100 mg/kg, after one and two weeks (FIG. 15)): markedly reduced; glucose to insulin ratio (in words) ([4]; Experiment C, Compound A 10 and 30 mg/kg (FIG. 14)): sustained at pretreatment levels; serum insulin (in words) ([4]; Experiment C, higher Compound A doses (FIG. 13)): sharp rise in serum insulin was largely curtailed or minimized; Triglycerides (% of Pre-treatment) ([4]; Experiment D, 10 mg/kg/day, 14 days, control +1.6): −11.1 % of Pre-treatment; Body Weight Gain (% of Pre-treatment) ([4]; Experiment D, 10 mg/kg/day, 14 days, control +10.6): +2.2 % of Pre-treatment; Triglycerides (% of Pre-treatment) ([4]; Experiment D, 100 mg/kg/day, 14 days, control +1.6): −62.9 % of Pre-treatment; Body Weight Gain (% of Pre-treatment) ([4]; Experiment D, 100 mg/kg/day, 14 days, control +10.6): +4.5 % of Pre-treatment; Non HDL-Cholesterol (% of Pretreatment) ([4]; Experiment D, 100 mg/kg/day, 14 days, control +15.2): +7.5 % of Pretreatment; Triglycerides (% of Pre-treatment) ([4]; Experiment E, 100 mg/kg/day, 14 days, control +12.0): −43.2 % of Pre-treatment; Body Weight Gain (% of Pre-treatment) ([4]; Experiment E, 100 mg/kg/day, 14 days, control +21.9): +19.1 % of Pre-treatment; Non HDL-Cholesterol (% of Pretreatment) ([4]; Experiment E, 100 mg/kg/day, 14 days, control −13.1): +7.2 % of Pretreatment; serum glucose (in words) [5]: did not induce a hypoglycemic state

With CC(C)(CCCCOCCCCC(C)(C)OP(=O)(O)O)OP(=O)([O-])[O-].[Na+].[Na+] [Compound B, phosphoric acid mono-(1,1-dimethyl-5-(5-methyl-5-phosphonooxy-hexyloxy)-pentyl) ester sodium salt] as the compound, how does the “Body Weight Gain (% of Pre-treatment)” value ([4]; Experiment B, 100 mg/kg/day, 14 days, control +10.7) read?
The value was “+12.0 % of Pre-treatment”.

And the “Triglycerides (% of Pre-treatment)” value ([4]; Experiment B, 100 mg/kg/day, 14 days, control −31.9)?
The value was “+24.6 % of Pre-treatment”.

— US6909014B2, “Intermediates for the synthesis of ether compounds” (Esperion Therapeutics, Inc., priority 1999, dated 2005)
